Read-outs that look alike come from different tables or passages of the source.
Tests used:
Experiment in all cases: Kinase profiling screen (radioactive filter-binding assay)
Type in all cases: biochemical
CSK = CSK (Homo sapiens, UniProt P41240); settings: 100 μM compound, 20 μM ATP; read-out: Kinase activity, % of activity in the absence of inhibitor
Summary of the method: (§1)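 Residual kinase activity is read in duplicate wells containing 100 μM final test compound (CoA, dpCoA or ADP). Recombinant kinases use model substrates at ATP levels optimal for each enzyme, across a 117-kinase screen.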

MARK2 = MARK2 (Homo sapiens, UniProt Q7KZI7); settings: 100 μM compound, 20 μM ATP; read-out: Kinase activity, % of activity in the absence of inhibitor
Summary of the method: as §1

PAK4 = PAK4 (Homo sapiens, UniProt O96013); settings: 100 μM compound, 5 μM ATP; read-out: Kinase activity, % of activity in the absence of inhibitor
Summary of the method: as §1

PDK1 = molecular target: T1, PDK1 (Homo sapiens, UniProt O15530); settings: 100 μM compound, 20 μM ATP; read-out: Kinase activity, % of activity in the absence of inhibitor
T1 sequence (O15530 1-556): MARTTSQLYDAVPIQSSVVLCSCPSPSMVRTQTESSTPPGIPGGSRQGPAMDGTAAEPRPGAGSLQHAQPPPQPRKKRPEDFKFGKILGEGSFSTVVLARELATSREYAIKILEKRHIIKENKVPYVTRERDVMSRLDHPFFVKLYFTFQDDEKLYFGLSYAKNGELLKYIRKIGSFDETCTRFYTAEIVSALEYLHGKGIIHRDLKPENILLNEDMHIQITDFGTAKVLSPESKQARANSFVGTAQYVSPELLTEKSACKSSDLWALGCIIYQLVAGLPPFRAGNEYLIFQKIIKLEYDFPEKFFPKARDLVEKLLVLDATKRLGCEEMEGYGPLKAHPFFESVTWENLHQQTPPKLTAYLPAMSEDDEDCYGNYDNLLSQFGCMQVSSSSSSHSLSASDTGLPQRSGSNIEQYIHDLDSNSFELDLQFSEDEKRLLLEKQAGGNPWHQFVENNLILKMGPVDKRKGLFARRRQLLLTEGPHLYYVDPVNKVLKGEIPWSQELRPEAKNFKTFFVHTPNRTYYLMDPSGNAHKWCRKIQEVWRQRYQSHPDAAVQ
Summary of the method: as §1

PIM1 = PIM1 (Homo sapiens, UniProt P11309); settings: 100 μM compound, 20 μM ATP; read-out: Kinase activity, % of activity in the absence of inhibitor
Summary of the method: as §1

PKCα = PKCα (Homo sapiens, UniProt P17252); settings: 100 μM compound, read-out: Kinase activity, % of activity in the absence of inhibitor
Summary of the method: as §1

PKD1 = molecular target: T2, PKD1 (Homo sapiens, UniProt Q15139); settings: 100 μM compound, 50 μM ATP; read-out: Kinase activity, % of activity in the absence of inhibitor
T2 sequence (Q15139 1-912): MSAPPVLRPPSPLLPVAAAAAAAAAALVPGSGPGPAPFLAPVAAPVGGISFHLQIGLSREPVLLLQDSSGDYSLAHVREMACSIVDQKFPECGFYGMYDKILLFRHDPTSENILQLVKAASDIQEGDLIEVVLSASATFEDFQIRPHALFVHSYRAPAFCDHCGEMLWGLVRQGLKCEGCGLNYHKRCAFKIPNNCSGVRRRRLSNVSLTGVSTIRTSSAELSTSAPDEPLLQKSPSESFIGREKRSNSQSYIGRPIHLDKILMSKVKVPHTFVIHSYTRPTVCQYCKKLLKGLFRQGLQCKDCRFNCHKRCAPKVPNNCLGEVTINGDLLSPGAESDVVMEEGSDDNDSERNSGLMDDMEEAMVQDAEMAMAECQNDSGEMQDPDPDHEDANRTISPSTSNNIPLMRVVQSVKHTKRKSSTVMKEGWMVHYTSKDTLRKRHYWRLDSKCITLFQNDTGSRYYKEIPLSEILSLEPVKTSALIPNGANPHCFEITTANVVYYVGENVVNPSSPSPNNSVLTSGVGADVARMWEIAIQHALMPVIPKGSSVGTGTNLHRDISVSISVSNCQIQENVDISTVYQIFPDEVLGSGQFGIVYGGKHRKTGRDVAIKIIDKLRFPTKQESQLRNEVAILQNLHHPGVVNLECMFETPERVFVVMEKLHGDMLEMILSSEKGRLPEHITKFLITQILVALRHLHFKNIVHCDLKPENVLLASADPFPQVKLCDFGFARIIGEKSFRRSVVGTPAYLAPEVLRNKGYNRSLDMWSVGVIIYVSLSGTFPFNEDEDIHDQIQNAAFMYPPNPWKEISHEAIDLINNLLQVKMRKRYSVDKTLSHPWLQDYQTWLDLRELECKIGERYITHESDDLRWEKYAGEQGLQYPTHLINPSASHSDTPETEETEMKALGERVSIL
Summary of the method: as §1

PRAK = molecular target: T3, PRAK (Homo sapiens, UniProt Q8IW41); settings: 100 μM compound, 20 μM ATP; read-out: Kinase activity, % of activity in the absence of inhibitor
T3 sequence (Q8IW41 1-473): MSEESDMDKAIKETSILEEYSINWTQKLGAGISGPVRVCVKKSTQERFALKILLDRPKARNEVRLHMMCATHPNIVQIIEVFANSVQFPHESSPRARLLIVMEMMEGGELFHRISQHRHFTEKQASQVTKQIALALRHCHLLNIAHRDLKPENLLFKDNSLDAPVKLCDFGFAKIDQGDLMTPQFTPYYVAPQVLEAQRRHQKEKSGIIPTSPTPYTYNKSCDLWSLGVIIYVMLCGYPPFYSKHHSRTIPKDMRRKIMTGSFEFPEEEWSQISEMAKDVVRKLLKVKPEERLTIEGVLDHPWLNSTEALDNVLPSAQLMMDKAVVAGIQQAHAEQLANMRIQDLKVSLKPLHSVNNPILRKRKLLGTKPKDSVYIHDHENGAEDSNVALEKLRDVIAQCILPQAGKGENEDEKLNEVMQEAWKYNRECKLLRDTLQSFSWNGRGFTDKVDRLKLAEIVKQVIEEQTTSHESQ
Summary of the method: as §1

PRK2 = PRK2 (Homo sapiens, UniProt Q16513); settings: 100 μM compound, 5 μM ATP; read-out: Kinase activity, % of activity in the absence of inhibitor
Summary of the method: as §1

SRPK1 = SRPK1 (Homo sapiens, UniProt Q96SB4); settings: 100 μM compound, 50 μM ATP; read-out: Kinase activity, % of activity in the absence of inhibitor
Summary of the method: as §1

TIE2 = TIE2 (Homo sapiens, UniProt Q02763); settings: 100 μM compound, 20 μM ATP; read-out: Kinase activity, % of activity in the absence of inhibitor
Summary of the method: as §1

Chain of PIM1 (P11309 whole entry): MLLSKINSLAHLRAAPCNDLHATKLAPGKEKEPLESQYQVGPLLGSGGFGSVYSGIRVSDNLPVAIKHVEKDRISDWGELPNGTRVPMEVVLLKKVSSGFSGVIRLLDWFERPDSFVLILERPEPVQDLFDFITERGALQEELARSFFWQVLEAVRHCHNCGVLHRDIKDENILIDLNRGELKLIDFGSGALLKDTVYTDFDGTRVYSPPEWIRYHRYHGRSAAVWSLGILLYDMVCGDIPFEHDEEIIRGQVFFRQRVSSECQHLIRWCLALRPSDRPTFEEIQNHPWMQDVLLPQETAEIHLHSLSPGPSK
Chain of PRK2 (Q16513 whole entry): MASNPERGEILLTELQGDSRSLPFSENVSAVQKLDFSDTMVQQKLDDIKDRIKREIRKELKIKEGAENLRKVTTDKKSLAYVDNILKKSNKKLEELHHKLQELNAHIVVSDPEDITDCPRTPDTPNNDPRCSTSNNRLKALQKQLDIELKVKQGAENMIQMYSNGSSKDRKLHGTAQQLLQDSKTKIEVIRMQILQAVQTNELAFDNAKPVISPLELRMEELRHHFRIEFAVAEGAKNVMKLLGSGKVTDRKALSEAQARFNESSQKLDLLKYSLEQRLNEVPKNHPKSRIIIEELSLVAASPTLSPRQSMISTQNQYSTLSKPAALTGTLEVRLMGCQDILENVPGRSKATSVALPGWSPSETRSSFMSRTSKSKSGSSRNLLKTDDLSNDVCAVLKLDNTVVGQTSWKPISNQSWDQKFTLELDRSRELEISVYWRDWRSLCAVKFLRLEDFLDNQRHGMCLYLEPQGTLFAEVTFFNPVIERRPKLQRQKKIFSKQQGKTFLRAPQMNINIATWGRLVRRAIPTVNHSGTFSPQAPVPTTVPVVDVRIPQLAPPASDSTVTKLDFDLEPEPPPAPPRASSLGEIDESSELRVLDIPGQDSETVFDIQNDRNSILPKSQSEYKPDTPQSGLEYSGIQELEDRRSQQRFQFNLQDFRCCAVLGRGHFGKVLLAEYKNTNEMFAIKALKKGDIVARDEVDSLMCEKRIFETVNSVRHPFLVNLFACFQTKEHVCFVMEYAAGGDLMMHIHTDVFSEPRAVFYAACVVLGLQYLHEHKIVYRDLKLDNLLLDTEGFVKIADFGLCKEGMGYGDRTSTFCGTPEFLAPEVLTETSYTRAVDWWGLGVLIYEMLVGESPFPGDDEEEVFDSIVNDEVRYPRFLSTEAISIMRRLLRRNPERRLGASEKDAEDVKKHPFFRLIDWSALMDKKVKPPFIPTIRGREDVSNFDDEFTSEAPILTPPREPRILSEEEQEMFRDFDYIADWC
Chain of SRPK1 (Q96SB4 whole entry): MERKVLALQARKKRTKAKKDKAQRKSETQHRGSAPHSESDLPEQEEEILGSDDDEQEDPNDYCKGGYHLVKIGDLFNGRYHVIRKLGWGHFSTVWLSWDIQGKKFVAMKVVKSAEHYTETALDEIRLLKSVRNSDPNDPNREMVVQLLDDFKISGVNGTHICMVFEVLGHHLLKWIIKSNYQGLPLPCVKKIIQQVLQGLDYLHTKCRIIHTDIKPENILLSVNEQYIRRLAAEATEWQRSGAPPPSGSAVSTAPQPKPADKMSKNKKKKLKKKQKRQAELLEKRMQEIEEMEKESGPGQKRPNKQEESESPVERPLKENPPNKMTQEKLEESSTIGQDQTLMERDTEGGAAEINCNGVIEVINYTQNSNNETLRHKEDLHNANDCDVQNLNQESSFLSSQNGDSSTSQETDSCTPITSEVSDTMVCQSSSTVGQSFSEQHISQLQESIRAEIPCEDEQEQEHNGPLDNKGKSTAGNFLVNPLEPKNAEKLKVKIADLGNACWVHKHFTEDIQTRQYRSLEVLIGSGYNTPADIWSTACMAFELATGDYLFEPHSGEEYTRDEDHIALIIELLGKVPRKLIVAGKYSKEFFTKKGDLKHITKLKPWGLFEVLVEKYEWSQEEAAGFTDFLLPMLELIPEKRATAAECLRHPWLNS
Chain of MARK2 (Q7KZI7 whole entry): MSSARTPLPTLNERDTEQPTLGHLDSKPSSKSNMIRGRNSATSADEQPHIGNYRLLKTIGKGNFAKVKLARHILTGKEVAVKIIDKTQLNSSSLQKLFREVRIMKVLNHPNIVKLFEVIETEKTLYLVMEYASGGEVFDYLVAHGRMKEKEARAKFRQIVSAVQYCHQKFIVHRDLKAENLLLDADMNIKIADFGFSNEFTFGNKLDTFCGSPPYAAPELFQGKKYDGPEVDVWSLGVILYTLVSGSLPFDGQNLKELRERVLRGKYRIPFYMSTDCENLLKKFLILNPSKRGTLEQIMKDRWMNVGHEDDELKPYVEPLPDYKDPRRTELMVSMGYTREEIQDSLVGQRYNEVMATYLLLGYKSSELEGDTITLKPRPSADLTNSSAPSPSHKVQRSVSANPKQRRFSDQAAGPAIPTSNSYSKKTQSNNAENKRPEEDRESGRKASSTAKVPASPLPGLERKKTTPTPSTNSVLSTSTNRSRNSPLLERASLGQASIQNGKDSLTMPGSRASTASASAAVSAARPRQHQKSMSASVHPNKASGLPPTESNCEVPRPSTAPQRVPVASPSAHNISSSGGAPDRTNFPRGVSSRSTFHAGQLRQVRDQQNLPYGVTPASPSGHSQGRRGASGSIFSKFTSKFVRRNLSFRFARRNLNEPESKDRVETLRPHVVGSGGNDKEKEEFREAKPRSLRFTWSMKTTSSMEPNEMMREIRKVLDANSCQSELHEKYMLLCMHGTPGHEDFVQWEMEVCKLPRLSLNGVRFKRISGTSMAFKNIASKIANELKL
Chain of TIE2 (Q02763 23-1124): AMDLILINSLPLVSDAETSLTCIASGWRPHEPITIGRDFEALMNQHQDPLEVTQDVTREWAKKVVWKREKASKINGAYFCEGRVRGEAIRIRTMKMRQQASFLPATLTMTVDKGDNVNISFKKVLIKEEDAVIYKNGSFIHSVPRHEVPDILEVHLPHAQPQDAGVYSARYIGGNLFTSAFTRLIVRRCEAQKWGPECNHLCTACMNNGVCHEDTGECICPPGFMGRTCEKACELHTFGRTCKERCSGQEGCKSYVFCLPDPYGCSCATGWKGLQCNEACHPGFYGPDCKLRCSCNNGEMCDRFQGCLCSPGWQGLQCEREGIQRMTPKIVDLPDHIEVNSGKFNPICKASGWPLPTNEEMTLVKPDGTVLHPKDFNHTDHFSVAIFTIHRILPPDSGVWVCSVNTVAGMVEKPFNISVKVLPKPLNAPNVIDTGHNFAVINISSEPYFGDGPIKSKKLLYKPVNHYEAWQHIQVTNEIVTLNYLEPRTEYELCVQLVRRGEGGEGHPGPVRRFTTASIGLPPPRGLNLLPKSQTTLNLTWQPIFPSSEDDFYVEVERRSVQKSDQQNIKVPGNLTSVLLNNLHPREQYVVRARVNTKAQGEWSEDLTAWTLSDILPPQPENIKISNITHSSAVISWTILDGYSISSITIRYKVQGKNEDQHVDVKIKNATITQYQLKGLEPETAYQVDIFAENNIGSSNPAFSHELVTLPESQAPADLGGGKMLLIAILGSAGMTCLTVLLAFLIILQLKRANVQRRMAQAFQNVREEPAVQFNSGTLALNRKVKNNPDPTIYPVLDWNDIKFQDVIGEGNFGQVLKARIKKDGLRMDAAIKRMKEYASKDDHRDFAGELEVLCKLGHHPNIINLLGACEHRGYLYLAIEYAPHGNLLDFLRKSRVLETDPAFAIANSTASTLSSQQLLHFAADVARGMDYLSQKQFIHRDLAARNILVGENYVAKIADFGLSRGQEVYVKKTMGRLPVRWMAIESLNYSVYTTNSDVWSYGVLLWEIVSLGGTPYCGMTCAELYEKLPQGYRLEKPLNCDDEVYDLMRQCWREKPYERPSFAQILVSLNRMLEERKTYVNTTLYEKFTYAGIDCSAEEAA
Chain of CSK (P41240 whole entry): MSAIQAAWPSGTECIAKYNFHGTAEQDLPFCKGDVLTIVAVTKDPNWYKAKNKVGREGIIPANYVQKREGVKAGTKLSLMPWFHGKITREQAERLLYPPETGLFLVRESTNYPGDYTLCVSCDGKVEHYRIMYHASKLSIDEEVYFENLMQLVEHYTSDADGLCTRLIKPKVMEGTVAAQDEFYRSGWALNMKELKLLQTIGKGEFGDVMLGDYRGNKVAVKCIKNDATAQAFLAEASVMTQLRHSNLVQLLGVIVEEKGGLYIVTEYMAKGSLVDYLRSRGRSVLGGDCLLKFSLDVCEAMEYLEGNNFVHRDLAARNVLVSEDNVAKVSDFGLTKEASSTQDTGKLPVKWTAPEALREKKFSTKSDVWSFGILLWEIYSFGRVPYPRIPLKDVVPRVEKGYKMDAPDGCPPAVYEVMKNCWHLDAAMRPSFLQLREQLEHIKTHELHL
Chain of PAK4 (O96013 whole entry): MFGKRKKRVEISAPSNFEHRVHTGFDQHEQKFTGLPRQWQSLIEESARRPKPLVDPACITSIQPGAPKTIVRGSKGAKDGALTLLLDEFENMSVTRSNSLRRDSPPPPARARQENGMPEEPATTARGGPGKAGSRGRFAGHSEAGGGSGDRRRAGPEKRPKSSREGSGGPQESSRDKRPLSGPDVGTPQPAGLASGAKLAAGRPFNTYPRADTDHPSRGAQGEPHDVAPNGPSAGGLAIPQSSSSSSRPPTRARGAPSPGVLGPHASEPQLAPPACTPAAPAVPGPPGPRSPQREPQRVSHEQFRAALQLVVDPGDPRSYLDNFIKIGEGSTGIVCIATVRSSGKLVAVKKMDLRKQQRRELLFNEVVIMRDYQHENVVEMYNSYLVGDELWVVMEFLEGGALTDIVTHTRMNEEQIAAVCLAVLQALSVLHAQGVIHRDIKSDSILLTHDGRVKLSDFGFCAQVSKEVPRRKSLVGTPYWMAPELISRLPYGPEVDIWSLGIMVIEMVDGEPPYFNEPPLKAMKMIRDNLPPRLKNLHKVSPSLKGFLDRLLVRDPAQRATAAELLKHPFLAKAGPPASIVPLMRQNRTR

Compound	activity at 100 µM (CSK) [%]	activity at 100 µM (MARK2) [%]	activity at 100 µM (PAK4) [%]	activity at 100 µM (PDK1) [%]	activity at 100 µM (PIM1) [%]	activity at 100 µM (PKCα; 5 μM ATP) [%]	activity at 100 µM (PKCα; 20 μM ATP) [%]	activity at 100 µM (PKD1) [%]	activity at 100 µM (PRAK) [%]	activity at 100 µM (PRK2) [%]	activity at 100 µM (SRPK1) [%]	activity at 100 µM (TIE2) [%]
CC(C)(COP(=O)(O)OP(=O)(O)OC[C@H]1O[C@@H](n2cnc3c(N)ncnc32)[C@H](O)[C@@H]1OP(=O)(O)O)[C@@H](O)C(=O)NCCC(=O)NCCS [CoA, Coenzyme A]	92.6	93.1	69.9	113	103	104	78.1	112	99.7	71.3	116	93
Nc1ncnc2c1ncn2C1OC(COP(=O)(O)OP(=O)(O)O)C(O)C1O (stereo not drawn) [ADP]	18.5	25	73.8	23.3	46.1	38.6	76.5	56.2	15.2	20.8	60.9	33.1
CC(C)(COP(=O)(O)OP(=O)(O)OCC1OC(n2cnc3c(N)ncnc32)C(O)C1O)C(O)C(=O)NCCC(=O)NCCS (stereo not drawn) [dpCoA, dephospho-CoA]	54.9	81.5	75.9	91.2	97.7	76.8	88.9	104	77.7	67.5	89.1	83.4

— PMC6812009, “Covalent Aurora A regulation by the metabolic integrator coenzyme A” (Redox Biology, 2019)
